Experimental data reported in patent publication US6924311B2, “Methods for affecting various diseases utilizing LXR compounds” (X-Ceptor Therapeutics, Inc., priority 2001, dated 2005).

How the values were obtained:
[1] = Plasma triglyceride levels in wildtype and LXR knockout mice after oral dosing; format: in vivo; details: 10 mg/kg daily oral gavage, 7 days
Excerpt: To decipher the physiological roles of LXRα and LXRβ mice, seven different lines of mice encompassing four unique LXR genotypes (LXRα+/+, LXRβ+/+=wildtype; LXRα−/−, LXRβ+/+=LXRα−/−; LXRα+/+, LXRβ−/−=LXRβ−/−; LXRα−/−, LXRβ−/−=LXRαβ−/−) were studied. Genetic knockouts of LXRα( LXRα−/−) were generated in two independent mouse strain backgrounds (C57BL/6 and A129). Genetic knockouts of LXRβ (LXRβ−/−) and the double knockout of LXRα and LXRβ (LXRαβ−/−) were generated in a mixed genetic background (C57BL/6×A129). The three appropriate wildtype (LXRα+/+, LXRβ+/+) mouse lines were used as controls. Mice from each line were treated for seven days with 10 mg compound/kg body weight of the LXR agonist Compound 1: N-(2,2,2-trifluoroethyl)-N-[4-(2,2,2- trifluoro-1-hydroxy-1-trifluoromethylethyl)-phenyl]-benzene sulfonamide. […] Compound 1 was administered by daily oral gavage in a sesame oil/ethanol vehicle via a 1-cc syringe fitted with a 20G disposable feeding needle. Compound was solvated in ethanol (5% final volume) and brought up to final volume with sesame oil (Sigma, St. Louis, Mo.).
To determine the ability of Compound 1 to elevate serum triglycerides non-fasting mice were anesthetized with isofluorane and blood samples were obtained by retro-orbital plexus puncture. Blood samples were collected before the first dose and three hours after dosing on day 1, day 3 and day 7 into heparinized tubes. Samples were centrifuged to obtain plasma and stored at −20° C. Plasma triglyceride levels were determined using a colorimetric enzymatic assay adapted to a 96 well plate format (Infinity Triglyceride Reagent, Sigma, St. Louis, Mo.). Sigma glycerol standards (Sigma, St. Louis, Mo.) were use to generate standard curves. The absorbance of the samples and standards were read using a Multiskan plate reader.

ABCG1 mRNA = ABCG1 mRNA induction in cultured peritoneal macrophages; format: cell-based, mice; details: 24 hours
Excerpt: The individual contributions of both receptors to macrophage gene expression were examined by first measuring the amount of mRNA encoding LXRα and LXRβ in thioglycolate-elicited peritoneal macrophages obtained from mixed wildtype mice. Thioglycolate-elicited peritoneal macrophages were isolated from mice 4 days after peritoneal injection of thioglycolate media. Peritoneal macrophages were harvested by lavage of the peritoneum with phosphate buffered saline (PBS), cells were washed, transferred to 60 mm culture plates and incubated at 37° C. in RPMI 1640 media (Life Technologies) containing 10% FBS, 2 mmol/L glutamine, 100 μg/mL streptomycin and 100 IU penicillin (Life Technologies). After 5 hours at 37° C., cells were washed 5 times with PBS to remove non-adherent cells and adherent cells were further incubated in RPMI 1640 media supplemented with 10% FBS for 24 hours. To determine the mRNA levels of LXRα and LXRβ, after 24 hours total RNA was isolated from cultured macrophages using RNeasy kits (QIAGEN Inc.) according to the supplier's total RNA isolation procedure. The RNA samples were further treated with deoxyribonuclease I to eliminate contaminating genomic DNA. LXRα and LXRβ mRNA levels were than analyzed by real-time based quantitative PCR using Perkin Elmer ABI Prism 7700 and Sequence Detection System software (Perkin Elmer). […] To further examine LXR-dependent gene expression in macrophages, peritoneal macrophages were isolated as described above from mixed wildtype, LXRα−/− (C57BL/6), LXRβ−/−, and LXRαβ−/− mice. After removal of non-adherent cells, the remaining macrophages were than cultured in either the absence or presence of LXR pan-agonist (1.0 μM Compound 1) for 24 hours. At the end of the experiment total RNA was isolated from cultured macrophages using RNeasy kits (QIAGEN Inc.) according to the supplier's total RNA isolation procedure. RNA samples were further treated with deoxyribonuclease I to eliminate contaminating genomic DNA before use. The LXR agonist-dependent induction of the ABCA1 and ABCG1 mRNAs were than analyzed by real-time based quantitative PCR using Perkin Elmer ABI Prism 7700 and Sequence Detection System software (Perkin Elmer). ABCA1 and ABCG1 function as efflux pumps that mediate the transfer of intracellular cholesterol out of cells to HDL particles, a process referred to as reverse cholesterol transport. […] Elimination of LXRα activity (LXRα−/−) has no effect on the agonist-dependent response. In contrast, elimination of LXRβ activity (LXRβ−/−) reduces the agonist-dependent induction of ABCA1 by 82% and the ABCG1 induction by 50%. […] Thus LXRβ alone is sufficient to allow the maximum induction of ABCA1 and ABCG1 in peritoneal macrophages.

ABCA1 mRNA = test: Intestinal mucosa ABCA1 mRNA by quantitative PCR in treated mice; format: in vivo; details: daily oral 7 days
Protocol: The LXR pan-agonist-dependent inhibition of cholesterol absorption is believed to result from the ability of LXRs to induce the expression of ATP binding cassette transporters such as ABCA1 in the intestine. To examine the contributions of LXRα and LXRβ to intestinal gene expression and dietary cholesterol absorption, Compound 1 was administered to wildtype, LXRα−/−, LXRβ−/− and LXRαβ−/− mice for seven days by daily oral gavage in a sesame oil/ethanol vehicle via a 1 cc syringe fitted with a 20G disposable feeding needle. Compound was solvated in ethanol (5% final volume) and brought up to final volume with sesame oil (Sigma, St. Louis, Mo.). Three hours after the final dose (day 7) animals were sacrificed, intestines were harvested, and intestinal enterocytes were isolated by gently scraping the mucosa layer away from the rest of the tissue. Total intestinal mucosa RNA was isolated using RNeasy kits (QIAGEN Inc.) according to the supplier's total RNA isolation procedure. The RNA samples were further treated with deoxyribonuclease I to eliminate contaminating genomic DNA. ABCA1 mRNA levels were than analyzed by real-time based quantitative PCR using Perkin Elmer ABI Prism 7700 and Sequence Detection System software (Perkin Elmer). […] No induction is observed in LXRαβ−/− mice. Thus either LXRα or LXRβ alone is sufficient to induce ABCA1 in the intestine and inhibit the absorption of dietary cholesterol.

O=S(=O)(c1ccccc1)N(CC(F)(F)F)c1ccc(C(O)(C(F)(F)F)C(F)(F)F)cc1 [Compound 1, N-(2,2,2-trifluoroethyl)-N-[4-(2,2,2-trifluoro-1-hydroxy-1-trifluoromethylethyl)-phenyl]-benzene sulfonamide]
effect on serum triglyceride levels ([1]; LXRβ−/− mice): no effect on the ability of LXR agonists to elevate triglycerides | effect on serum triglyceride levels ([1]; mice lacking LXRα (LXRα−/−, LXRαβ−/−)): elevates serum triglyceride levels only in mice that have LXRα | effect on serum triglyceride levels ([1]; wildtype mice): elevates serum triglyceride levels | agonist-dependent ABCG1 mRNA induction (ABCG1 mRNA; LXRαβ−/− macrophages, 1.0 μM): completely blocks the response | agonist-dependent ABCG1 mRNA induction (ABCG1 mRNA; LXRα−/− macrophages, 1.0 μM): no effect | reduction of agonist-dependent induction of ABCG1 (ABCG1 mRNA; LXRβ−/− macrophages versus wildtype, 1.0 μM): 50% | fold induction at 1 µM (ABCG1 mRNA; Mus musculus, Macrophage, wildtype macrophages): 8 | ABCA1 mRNA induction in the intestine (ABCA1 mRNA; LXRαβ−/− mice): No induction | ABCA1 mRNA fold induction in the intestine (ABCA1 mRNA; LXRα−/− mice, depending on the strain): 7-14 fold | ABCA1 mRNA fold induction in the intestine (ABCA1 mRNA; LXRβ−/− mice): 9 fold | ABCA1 mRNA fold induction in the intestine (ABCA1 mRNA; wildtype mice, depending on the strain): 14-29 fold
